Consider 30 molecules from paper PMC8286840, “Identifying SARS-CoV-2 antiviral compounds by screening for small molecule inhibitors of Nsp3 papain-like protease” (Biochemical Journal, 2021).

Structures can show the parent of a compound that is named as a salt. Where two headings read alike, the source gives them in different places.

The target in experiment [1] is T1, SARS-CoV-2 PLpro (nsp3 1564–1878) (Severe acute respiratory syndrome coronavirus 2, UniProt P0DTD1). As to the kind of experiment: biochemical. Also noted: FRET-quenched peptide (Pro3) cleavage by PLpro, 10 min pre-incubation, slope over 20 min, normalised to no-compound control. The note with it: low concentration screen, read-out: % of control remaining.
The target in experiment [2] is T1, SARS-CoV-2 PLpro (nsp3 1564–1878). As to the kind of experiment: biochemical. Also noted: FRET-quenched peptide (Pro3) cleavage by PLpro, 10 min pre-incubation, slope over 20 min, normalised to no-compound control. As to conditions: high concentration screen, read-out: % of control remaining.

Turning to `CO[C@H]1/C=C/O[C@@]2(C)Oc3c(C)c(O)c4c(O)c(c(/C=N/N5CCN(C)CC5)c(O)c4c3C2=O)NC(=O)/C(C)=C\C=C\[C@H](C)[C@H](O)[C@@H](C)[C@@H](O)[C@@H](C)[C@H](OC(C)=O)[C@@H]1C` [Rifampicin], the remaining activity at 1.25 µM was 103% in experiment [1] (Well no.=1668) and 101% in experiment [1] (Well no.=3138). The remaining activity at 3.75 µM was found to be 102% in experiment [2] (Well no.=1668) and 97.7% in experiment [2] (Well no.=3138).
On to `CCCCN1CCCC[C@H]1C(=O)Nc1c(C)cccc1C` [Levobupivacaine hydrochloride], for which the remaining activity at 1.25 µM in experiment [1] (Well no.=6043) stood at 98.8%. Also, the remaining activity at 3.75 µM in experiment [2] (Well no.=6043) is 105%.
`CCCCCN(CCCCC)C(=O)C(CCC(=O)O)NC(=O)c1ccc(Cl)c(Cl)c1` (stereo not drawn) [Lorglumide]: the remaining activity at 1.25 µM in experiment [1] (Well no.=2276) came out at 96.2%. Besides, the remaining activity at 3.75 µM in experiment [2] (Well no.=2276) came out at 98.3%.
Take `O=C1CN2Cc3c(ccc(Cl)c3Cl)N=C2N1` [Anagrelide HCl]: the remaining activity at 1.25 µM in experiment [1] (Well no.=5022) came out at 93.8%. Also, in experiment [2] (Well no.=5022), the remaining activity at 3.75 µM came to 99%.
Take `C[N+](C)(C)CC#CCN1CCCC1=O` [Oxotremorine methiodide]: the remaining activity at 1.25 µM in experiment [1] (Well no.=1138) was determined as 96.9%. Further, the remaining activity at 3.75 µM in experiment [2] (Well no.=1138) turned out to be 97.9%.
On to `Cc1cccc([C@H](C)c2c[nH]cn2)c1C` [Dexmedetomidine], for which the remaining activity at 1.25 µM in experiment [1] (Well no.=5319) came out at 94.4%. The remaining activity at 3.75 µM in experiment [2] (Well no.=5319) was determined as 95.8%.
Turning to `O=C(Oc1ccc([N+](=O)[O-])cc1)N1CCC(C(O)(c2ccc3c(c2)OCO3)c2ccc3c(c2)OCO3)CC1` [JZL184], in experiment [1] (Well no.=8838), the remaining activity at 1.25 µM is 92.7%. For the same molecule, the remaining activity at 3.75 µM in experiment [2] (Well no.=8838) was found to be 91.1%.
With `Cc1nnc(NS(=O)(=O)c2ccc(N)cc2)s1` [Sulfamethizole], the remaining activity at 1.25 µM in experiment [1] (Well no.=7444) was 94.6%; in experiment [1] (Well no.=8179), 108%. For the same molecule, the results for the remaining activity at 3.75 µM in experiment [2] (Well no.=7444) and in experiment [2] (Well no.=8179) were 92.4% and 106%, respectively.
`C[C@]12CCC(=O)C=C1CC[C@@H]1[C@@H]2[C@@H](O)C[C@@]2(C)[C@H]1CC[C@]2(O)C(=O)COC(=O)CCC(=O)O` [Hydrocortisone 21-hemisuccinate sodium salt]: in experiment [1] (Well no.=5653), the remaining activity at 1.25 µM came out at 99%. Also, in experiment [2] (Well no.=5653), the remaining activity at 3.75 µM is 102%.
Consider `COc1cc2c(cc1OC)[C@H]1CC(=O)[C@H](CC(C)C)CN1CC2` [(3R,11bR)-3-isobutyl-9,10-dimethoxy-1,3,4,6,7,11b-hexahydro-2H-pyrido[2,1-a]isoquinolin-2-one], for which the remaining activity at 1.25 µM in experiment [1] (Well no.=5582) stood at 93.7%. Moreover, the remaining activity at 3.75 µM in experiment [2] (Well no.=5582) came to 98.6%.
Turning to `O=C(c1cc(C2CC2)on1)N(C1CCCCC1)C1CCCCC1` [CYM-5541], the remaining activity at 1.25 µM in experiment [1] (Well no.=6224) worked out at 97.7%. In experiment [2] (Well no.=6224), the remaining activity at 3.75 µM amounted to 94.5%.
For `CN1CCN(c2nc3ccccc3nc2Cl)CC1` [VUF 10166], the remaining activity at 1.25 µM in experiment [1] (Well no.=4831) stood at 99.1%. Also, the remaining activity at 3.75 µM in experiment [2] (Well no.=4831) was determined as 103%.
Turning to `Cc1ccc(Cl)c(Nc2ccccc2C(=O)O)c1Cl` [Meclofenamic acid sodium salt], the remaining activity at 1.25 µM in experiment [1] (Well no.=5492) worked out at 104%. For the same molecule, the remaining activity at 3.75 µM in experiment [2] (Well no.=5492) came out at 106%.
With `CN(C)c1ncnc2c1ncn2[C@@H]1O[C@H](CO)[C@@H](O)[C@H]1O` [N6,N6-Dimethyladenosine], the remaining activity at 1.25 µM in experiment [1] (Well no.=7854) amounted to 97.9%. Moreover, the remaining activity at 3.75 µM in experiment [2] (Well no.=7854) was 102%.
Turning to `C=C[C@H]1CN2CC[C@H]1C[C@@H]2[C@@H](O)c1ccnc2ccc(OC)cc12` [Quinidine sulfate], the remaining activity at 1.25 µM in experiment [1] (Well no.=1363) turned out to be 101%. In experiment [2] (Well no.=1363), the remaining activity at 3.75 µM was found to be 105%.
With `CCOC(=O)c1ncn2c1CN(C)C(=O)c1cc(F)ccc1-2` [Flumazenil], the remaining activity at 1.25 µM worked out at 104% in experiment [1] (Well no.=517) and 103% in experiment [1] (Well no.=1575). The remaining activity at 3.75 µM in experiment [2] (Well no.=517) was 106%; in experiment [2] (Well no.=1575), 102%.
For `CC(C)C[C@H](NC(=O)CNC(=O)c1cc(Cl)ccc1Cl)B(O)O` [MLN2238], the remaining activity at 1.25 µM in experiment [1] (Well no.=4808) stood at 96.1%. Moreover, the remaining activity at 3.75 µM in experiment [2] (Well no.=4808) is 97.1%.
On to `C[n+]1cc2c3c(ccc2c2ccc4cc5c(cc4c21)OCO5)OCO3` [Sanguinarine chloride], for which the remaining activity at 1.25 µM in experiment [1] (Well no.=1458) worked out at 87.2%. Besides, in experiment [2] (Well no.=1458), the remaining activity at 3.75 µM is 86.2%.
Consider `CNc1nc(NCc2ccc(NS(C)(=O)=O)cc2Cl)cc(-c2ccccn2)n1` [TC-G-1008], for which the remaining activity at 1.25 µM in experiment [1] (Well no.=7769) worked out at 98.1%. Also, the remaining activity at 3.75 µM in experiment [2] (Well no.=7769) came out at 95.1%.
As for `CN(C)CCCN1c2ccccc2Sc2ccccc21` [Promazine hydrochloride], the remaining activity at 1.25 µM in experiment [1] (Well no.=1155) amounted to 104%. Moreover, the remaining activity at 3.75 µM in experiment [2] (Well no.=1155) was found to be 102%.
As to `CCN(CC)C(=O)c1ccc(C2=CC3(CCNCC3)Oc3cccc(O)c32)cc1` [ADL-5859], in experiment [1] (Well no.=8013), the remaining activity at 1.25 µM was determined as 92.2%. Moreover, the remaining activity at 3.75 µM in experiment [2] (Well no.=8013) amounted to 85.8%.
Turning to `N[C@@H](Cc1c[nH]cn1)C(=O)O` [L-Histidine hydrochloride], the remaining activity at 1.25 µM in experiment [1] (Well no.=422) was determined as 92.7%. Moreover, the remaining activity at 3.75 µM in experiment [2] (Well no.=422) was determined as 94.7%.
With `CC(C)(O/N=C(\C(=O)N[C@@H]1C(=O)N2C(C(=O)[O-])=C(C[n+]3ccccc3)CS[C@H]12)c1csc(N)n1)C(=O)O` [Ceftazidime], the remaining activity at 1.25 µM in experiment [1] (Well no.=2221) amounted to 98.3%. Moreover, the remaining activity at 3.75 µM in experiment [2] (Well no.=2221) amounted to 98%.
Take `O=C1N[C@@H](Cc2cnc[nH]2)C(=O)N2CCC[C@@H]12` [Cyclo(his-pro)]: the remaining activity at 1.25 µM in experiment [1] (Well no.=6245) stood at 106%. The remaining activity at 3.75 µM in experiment [2] (Well no.=6245) came out at 105%.
As to `CC(C)(C)OC(=O)CN(Cc1ccc(Cl)cc1)Cc1ccc([N+](=O)[O-])s1` [GSK4112], in experiment [1] (Well no.=5910), the remaining activity at 1.25 µM amounted to 97.7%. In experiment [2] (Well no.=5910), the remaining activity at 3.75 µM came to 96%.
With `Cc1cc(N=Nc2ccc3c(c2)CCC(=O)N3)c(N)cc1O` [ZL0420], the remaining activity at 1.25 µM in experiment [1] (Well no.=8468) is 103%. In experiment [2] (Well no.=8468), the remaining activity at 3.75 µM amounted to 95.2%.
Take `O=c1oc2c(O)c(O)cc3c(=O)oc4c(O)c(O)cc1c4c23` [Ellagic acid]: the remaining activity at 1.25 µM in experiment [1] (Well no.=3346) was determined as 99.4%. The remaining activity at 3.75 µM in experiment [2] (Well no.=3346) amounted to 101%.
Take `C=CCc1cc(OC)c2c(c1)OCO2` [Myristicin]: in experiment [1] (Well no.=3473), the remaining activity at 1.25 µM was 99%. The remaining activity at 3.75 µM in experiment [2] (Well no.=3473) was 99.9%.
On to `NS(=O)(=O)c1ccccc1` [Benzenesulfonamide], for which the remaining activity at 1.25 µM in experiment [1] (Well no.=8398) was found to be 97.6%. In addition, the remaining activity at 3.75 µM in experiment [2] (Well no.=8398) is 101%.
`COc1cccc2c1[C@@H]1CN(CCCCn3c(=O)[nH]c4c(sc5ncc(-c6ccccc6)nc54)c3=O)C[C@@H]1CO2` [Fiduxosin hydrochloride]: the remaining activity at 1.25 µM in experiment [1] (Well no.=611) was 97.2%. Also, in experiment [2] (Well no.=611), the remaining activity at 3.75 µM turned out to be 97.4%.
